Source: US7294642B2, “1,3-Diamino-2-hydroxypropane pro-drug derivatives” (Elan Pharmaceuticals, Inc., priority 2002, dated 2007)

Experiment: Acyl group migration (rearrangement) of pro-drug in DMSO-d6/buffer solution monitored by 19F-NMR
Assay type: physicochemical
Protocol: A compound of formula (I) OR (X) (5 mg) is dissolved in DMSO-d6 (500 μL) and either pH 4 buffer solution (500 μL, potassium hydrogen phthalate buffer) or pH 7 buffer solution (500 μL, sodium and potassium phosphate buffer) is added. The sample is then heated to 40° C. The O-acyl or N-acyl to N-terminal N-acyl migration is monitored by observing the change in chemical shift for the aromatic fluorines using ^19F-NMR. (Fluorine shifts associated with the desired migration were confirmed by spiking with authentic analogue). The sample is analyzed by ^19F-NMR at approxiamately 0, 1.5, 3, 24, 48, and 144 hours. The amount of O-acyl pro-drug, N-acyl pro-drug, and desired migration product at each time point are assigned by integrating the corresponding NMR signal.
N˜1˜-[(2R,3S)-3-amino-4-(3,5-difluorophenyl)-2-hydroxybutyl]-5-(1,3-oxazol-2-yl)-N˜3˜,N˜3˜-dipropyl-N˜1˜-[3-(trifluoromethyl)benzyl]isophthalamide hydrochloride (PREPARATION 7, 5 mg) is dissolved in DMSO-d6 (500 μL) and pH 4 buffer solution (500 μL, potassium hydrogen phthalate buffer) is added. The sample is then heated to 40° C. The N-acyl to N-terminal N-acyl migration is monitored by observing the change in chemical shift for the aromatic fluorines using ^19F-NMR. (Fluorine shifts for the desired migration product in the presence of buffer was confirmed by spiking with authentic migration product, N^1-((1S,2R)-1-(3,5-difluorobenzyl)-2-hydroxy-3-{[3-(trifluoromethyl)benzyl]amino}propyl)-5-(1,3-oxazol-2-yl)-N^3,N^3-dipropylisophthalamide.) NMR data is collected at 0, 1, 3, 25, 48, 96, and 144 hours. The amount of N-acyl pro-drug and desired migration product present at each time point is assigned by integrating the corresponding NMR signal.
The following examples illustrate the solution acyl group migration of compounds of the formulae (I) and (X) as observed by ^19F NMR spectroscopy. Data were collected as described in Example 1, above.

SMILES	HEA product (% present) (pH 4, 40° C., time 0 hr)	N-acyl prodrug (% present) (pH 4, 40° C., time 0 hr)	O-acyl pro-drug (% present) (pH 4, 40° C., time 0 hr)	HEA product (% present) (pH 4, 40° C., time 1.5 hr)	N-acyl prodrug (% present) (pH 4, 40° C., time 1.5 hr)	O-acyl pro-drug (% present) (pH 4, 40° C., time 1.5 hr)	HEA product (% present) (pH 4, 40° C., time 3 hr)	N-acyl prodrug (% present) (pH 4, 40° C., time 3 hr)	O-acyl pro-drug (% present) (pH 4, 40° C., time 3 hr)	HEA product (% present) (pH 4, 40° C., time 24 hr)	HEA product (% present) (pH 7, 40° C., time 0 hr)	N-acyl prodrug (% present) (pH 7, 40° C., time 0 hr)	O-acyl pro-drug (% present) (pH 7, 40° C., time 0 hr)	HEA product (% present) (pH 7, 40° C., time 1.5 hr)	N-acyl prodrug (% present) (pH 7, 40° C., time 1.5 hr)	O-acyl pro-drug (% present) (pH 7, 40° C., time 1.5 hr)	N-acyl prodrug (% present) (pH 7, 40° C., time 7 hr)	N-acyl prodrug (% present) (pH 7, 40° C., time 24 hr)	N-acyl prodrug (% present) (pH 7, 40° C., time 48 hr)	N-acyl prodrug (% present) (pH 7, 40° C., time 144 hr)	also measured
CCCN(CCC)C(=O)c1cc(C(=O)N(Cc2cccc(C(F)(F)F)c2)C[C@@H](O)[C@@H](N)Cc2cc(F)cc(F)c2)cc(-c2ncco2)c1.Cl [N˜1˜-[(2R,3S)-3-amino-4-(3,5-difluorophenyl)-2-hydroxybutyl]-5-(1,3-oxazol-2-yl)-N˜3˜,N˜3˜-dipropyl-N˜1˜-[3-(trifluoromethyl)benzyl]isophthalamide hydrochloride]	–	–	–	–	–	–	–	–	–	–	–	–	–	–	–	–	–	–	–	–	migration of N-acyl pro-drug to O-acyl pro-drug (pH 4 buffer/DMSO-d6, 40° C., 0 to 144 hours, 19F-NMR): No migration to O-acyl pro-drug was observed
CCCN(CCC)C(=O)c1cc(C(=O)O[C@H](CNCc2cccc(CC)c2)[C@@H](N)Cc2cc(F)cc(F)c2)cc(-c2ncco2)c1.Cl.Cl [Preparation 16, (1R,2S)-2-amino-3-(3,5-difluorophenyl)-1-{[(3-ethylbenzyl)amino]methyl}propyl 3-[(dispropylamino)carbonyl]-5-(1,3-oxazol-2-yl)benzoate dihydrochloride]	0%	0%	100%	54%	13%	33%	76%	15%	9%	88%	0%	0%	100%	48%	52%	0%	46%	38%	29%	15%	N-acyl prodrug (% present) (pH 4, 40° C., time 24 hr): 12%; O-acyl pro-drug (% present) (pH 4, 40° C., time 24 hr): 0%; HEA product (% present) (pH 4, 40° C., time 48 hr): 88%; N-acyl prodrug (% present) (pH 4, 40° C., time 48 hr): 12%; O-acyl pro-drug (% present) (pH 4, 40° C., time 48 hr): 0%; HEA product (% present) (pH 4, 40° C., time 144 hr): 91%; N-acyl prodrug (% present) (pH 4, 40° C., time 144 hr): 9%; O-acyl pro-drug (% present) (pH 4, 40° C., time 144 hr): 0%; HEA product (% present) (pH 7, 40° C., time 7 hr): 54%; O-acyl pro-drug (% present) (pH 7, 40° C., time 7 hr): 0%; HEA product (% present) (pH 7, 40° C., time 24 hr): 62%; O-acyl pro-drug (% present) (pH 7, 40° C., time 24 hr): 0%; HEA product (% present) (pH 7, 40° C., time 48 hr): 71%; O-acyl pro-drug (% present) (pH 7, 40° C., time 48 hr): 0%; HEA product (% present) (pH 7, 40° C., time 144 hr): 85%; O-acyl pro-drug (% present) (pH 7, 40° C., time 144 hr): 0%
CCCN(CCC)C(=O)c1cc(C(=O)O[C@H](CNC2(c3cccc(CC)c3)CC2)[C@@H](N)Cc2cc(F)cc(F)c2)cc(-c2ncco2)c1.Cl.Cl [Preparation 17, (1R,2S)-2-amino-3-(3,5-difluorophenyl)-1-({[1-(3-ethylphenyl)cyclopropyl]amino}methyl)propyl 3-[(dipropylamino)carbonyl]-5-(1,3-oxazol-2-yl)benzoate dihydrochloride]	0%	0%	100%	47%	0%	53%	67%	0%	33%	100%	0%	0%	100%	97%	0%	3%	0%	0%	0%	0%	HEA product (% present) (pH 4, 40° C., time 6 hr): 89%; N-acyl prodrug (% present) (pH 4, 40° C., time 6 hr): 0%; O-acyl pro-drug (% present) (pH 4, 40° C., time 6 hr): 11%; N-acyl prodrug (% present) (pH 4, 40° C., time 24 hr): 0%; O-acyl pro-drug (% present) (pH 4, 40° C., time 24 hr): 0%
CCCN(CCC)C(=O)c1cc(C(=O)O[C@H](CNCc2cccc(C(F)(F)F)c2)[C@@H](N)Cc2cc(F)cc(F)c2)cc(-c2ncco2)c1.Cl.Cl [Preparation 18, (1R,2S)-2-amino-3-(3,5-uorophenyl)-1-({[3-(trifluoromethyl)benzyl]amino}methyl)propyl 3-[(dipropylamino)carbonyl]-5-(1,3-oxazol-2-yl)benzoate dihydrochloride]	0%	0%	100%	54%	14%	32%	74%	18%	8%	–	0%	0%	100%	34%	66%	0%	59%	43%	27%	16%	HEA product (% present) (pH 4, 40° C., time 30 hr): 79%; N-acyl prodrug (% present) (pH 4, 40° C., time 30 hr): 21%; O-acyl pro-drug (% present) (pH 4, 40° C., time 30 hr): 0%; HEA product (% present) (pH 4, 40° C., time 54 hr): 80%; N-acyl prodrug (% present) (pH 4, 40° C., time 54 hr): 20%; O-acyl pro-drug (% present) (pH 4, 40° C., time 54 hr): 0%; HEA product (% present) (pH 4, 40° C., time 126 hr): 86%; N-acyl prodrug (% present) (pH 4, 40° C., time 126 hr): 14%; O-acyl pro-drug (% present) (pH 4, 40° C., time 126 hr): 0%; HEA product (% present) (pH 7, 40° C., time 7 hr): 41%; O-acyl pro-drug (% present) (pH 7, 40° C., time 7 hr): 0%; HEA product (% present) (pH 7, 40° C., time 24 hr): 57%; O-acyl pro-drug (% present) (pH 7, 40° C., time 24 hr): 0%; HEA product (% present) (pH 7, 40° C., time 48 hr): 73%; O-acyl pro-drug (% present) (pH 7, 40° C., time 48 hr): 0%; HEA product (% present) (pH 7, 40° C., time 144 hr): 84%; O-acyl pro-drug (% present) (pH 7, 40° C., time 144 hr): 0%
